Laboratory results reported in US7495028B2, “R-bambuterol, its preparation and therapeutic uses” (priority 2002, dated 2009).
Counter-ions that a name gives are not always drawn. Marks after values point to notes of the source that are not given here.

Assays:
[1] = tested on: isolated guinea pig lung strip; experiment: Bronchodilating effect on isolated guinea pig lung strip pre-contracted by histamine; assay type: cell-based
Description: Test method: Guinea pigs (Dunlin-Hartley, ca. 400 g) were used. After anesthesia, the chest was opened and sections of lung tissue about 3 mm in width, were dissected quickly from a lower lobe with the longitudinal axis of the strip cut parallel to the bronchus. The strips were further divided into two thin strips with approximate dimension of 20×3×3 mm. With threads attached to each end, strips were mounted in organ baths containing aerated Krebs solution at 37° C. A load of between 0.5-1.0 g force was applied by gentle stretching, and the tissue was allowed to equilibrate for 60 min with the solution changed at 20 min intervals. The lung strips were pre-contracted by 10^−5 M histamine, then an equal volume of solution containing R-bambuterol or racemic bambuterol was added cumulatively into the organ bath. The contractions of the lung strips were measured isometrically with force-displacement transducers and recorded.
Based on the pharmacokinetic studies of racemic bambuterol hydrochloride, about 50% of absorbed bambuterol is hydrolyzed to terbutaline, the active-parent form, in plasma. There is little cholinesterase in the lung strip preparation, so neither the test compound nor racemic bambuterol has significant effects. In order to test the compound of invention in vitro on isolated guinea-pig lung tissue, R-bambuterol and racemic bambuterol were administrated orally to guinea pigs at a dose of 8 mg/kg. Four hours later, blood was collected from the animals, and the serum containing the active parent form of the test compounds were prepared. The concentration of the active parent form, i.e. terbutaline, in serum measured using BPLC, was 64-70 ng/ml in the animal treated with R-bambuterol and 62-69 ng/ml in the animal treated with racemic bambuterol. The serum containing the active form of test compound was then added into the organ in a certain volume, so that the final concentration of the active forms of test compounds was 0.25 ng/ml in the organ bath. Concentration-response relationships were obtained using a cumulative dose schedule by adding the same volume of the serum into the organ bath. The test using the serum containing the active form of racemic bambuterol was done in parallel with the test compound in the same manner as described above.

[2] = tested on: conscious guinea pigs exposed to aerosol histamine; experiment: Protection against histamine-evoked asthma in conscious guinea pigs; assay type: in vivo, guinea pig; details: for Collapsed n: 8 animals; for Potency relative to racemic bambuterol: bronchospasmolytic / protective effect, hydrochloride; for % collapse / Latency time of collapse: dose-response, four hours before exposure
Description: Test methods: Guinea pigs (Dunki-Hartley strain, 190±30 g) were fasted overnight but given water ad libidum. The animals were restrained individually in a glass chamber and exposed to aerosol histamine generated by a nebulizer from a 0.2% aqueous solution of histamine under constant pressure at dose of 0.5 ml/min for a period of 15 sec. The animal was removed from the chamber, and its behavior was monitored. A sign of collapse and the latency time from exposure to collapse were recorded. Only the animals with latency time less than 120 sec, as an indication of sensitive to histamine, were chosen for later experiments. The animals chosen were allowed to recover completly by resting for 24 hours before experiments. Test compounds and racemic bambuterol hydrochloride were dissolved in saline.
Time course of the effect of test compounds: R-Bambuterol hydrochloride or racemic bambuterol hydrochloride at 2, 4 and 8 mg/kg, and vehicle alone, were administered to the guinea pigs orally via a stomach tube. Exposure of treated animals to aerosol histamine (as above) was done at 1, 4 and 24 hours after treatment. For each experimental group, there were a total of 8 animals with equal number of both sexes, and no repeated exposure was made for individual experimental animals.
Study of dose-response of test compounds: Four hours before the exposure to aerosol histamine, animals were randomized into groups (n=8, equal male and female), and given R-bambuterol hydrochloride or racemic bambuterol in doses of 0.25, 0.5, 1.0, 2.0, 4.0 and 8.0 mg/kg, and vehicle control, orally via a stomach tube. The numbers of collapsed animal as a result of asthmatic reaction to aerosol histamine were counted, and the latency times were recorded. Both of these parameters were used as quantitative measurements of the protective effects of the treatments on bronchospasm evoked by aerosol histamine.

[3] = tested on: sensitized conscious guinea pigs exposed to aerosol ovalbumin; experiment: Protection against allergic bronchospasm in ovalbumin-sensitized conscious guinea pigs; assay type: in vivo, guinea pig
Description: Test method: Guinea pigs (Dunkin-Hartley strain, 200±10 g, equal sexes) were used in this study. Ovalbumin (5%) solution was injected into guinea pigs subcutaneously and intraperitoneally to sensitize the animals. Male and female sensitized animals were kept separately for 14 days, and food and water was available ad libitum. On day 14 after sensitization, animals were randomized into groups of 8 each. The animals were treated orally with saline (control) or various concentrations of R-bambuterol or racemic bambuterol in saline. Four hours after the treatment, each animal was restrained in a glass chamber. After stabilization the animal was exposed to an aerosol of ovalbumin generated by a nebulizer from a 5% solution of ovalbumine at a rate of 0.5 ml/min for a period of 15 seconds. The animal was removed from the chamber, and the behavior of the animal was monitored. The number of the sensitized animals which collapsed were counted, and the latency time, i.e. the time from the exposure to aerosol ovalbumin to the collapse of the animal, was recorded.

hyperlipidemia mice = experiment: Lipid lowering effects in Tyloxapol-induced hyperlipidemia mice; assay type: in vivo; details: for TG lipid level: plasma 24 hours after Tyloxapol
Description: Test method: Male and […] mice, Kunming strain, 35 each, weight 18-22 grams, were used. Food and water were available ad libitum. The animals were randomized into 7 groups (n=10). Groups of animals were administered orafly, via a stomach tube, vehicle (distilled water, two groups), R-bambuterol hydrochloride (10 mg/kg and 5 mg/kg), racemic bambuterol hydrochloride (10 mg/kg and 5 mg/kg) and simvastatin (10 mg/kg) once a day for four days. With the exception of one vehicle—treated group (as control), Tyloxapol (400 mg/kg, Sigma Chemical Co.) was injected into the peritoneal cavity of the mice of all groups immediately after the last treatment on the fourth day in order to induce hyperlipidemia. All the animals were fasted overnight prior to the injection of Tyloxapol. Blood samples were collected by cardiac puncture 24 hours after the injection of Tyloxapol. The blood samples were processed to plasma, and concentration of triglycerides (TG), cholesterol (CHO), high density lipoprotein (HDL), low density lipoprotein (LDL) and very low density lipoprotein (VLDL) were measured with an autoblood analyzer (Olympic, Japan).

rats = experiment: Cardiovascular effects in anesthetized rats; assay type: in vivo; details: both, Sprague Dawley, rat, in vivo, 20 min
From the text: Test method: Rats (Sprague Dawley, 250-300 g) were randomized into two groups (n=6, equal sexes). After anesthesia, plastic tubing was introduced into a carotid artery of each animal and connected to pressure transducers to record mean artery pressure (MBP) and heart rate (HR). Another tube was introduced into the left ventricular chamber via the another carotid artery and connected to a pressure transducer. Left ventricular systolic pressure (LVSP) and the first order of differential of LVSP (dp/dt) as an index for inotropic effects were recorded. R-Bambuterol and racemic bambuterol hydrochloride were dissolved in saline and administrated intravenously at 30 mg/kg to each animal. The HR, MBP and Max dp/dt were measured before treatment (control) and after the treatments when the maximum response occurred, and 20 min after treatment as indication of recovery.

[4] = Tyl + 10 mg (10 mg/kg oral once a day for four days)

## CC(C)(C)NCC(O)c1cc(O)cc(O)c1 (racemic) [Active form of RS-bambuterol, racemic terbutaline]
[1]; 0.25 ng/ml active form in organ bath, 10^−5 M histamine pre-contraction
  Percent of Relaxation: 7.6 ± 0.8%
[1]; 0.50 ng/ml active form
  Percent of Relaxation: 10.8 ± 2.1%
[1]; 0.75 ng/ml active form
  Percent of Relaxation: 26.5 ± 3.4%
[1]; 1.00 ng/ml active form
  Percent of Relaxation: 39.6 ± 4.0%
[1]; 1.25 ng/ml active form
  Percent of Relaxation: 45.7 ± 6.7%

## CN(C)C(=O)Oc1cc(OC(=O)N(C)C)cc([C@@H](O)CNC(C)(C)C)c1 [R-bambuterol, R-Bambuterol hydrochloride]
[2]; 2 mg/kg oral, 1st Hour
  Collapsed %: 50.0* %
  Latency: 231 ± 70 s
  Collapsed n: 4.0
[2]; 2 mg/kg oral, 4th Hour
  Collapsed %: 25.0* %
  Latency: 295 ± 65 s
  Collapsed n: 2.0
[2]; 2 mg/kg oral, 24th Hour
  Collapsed %: 62.5%
  Latency: 202 ± 67 s
  Collapsed n: 5.0
[2]; 4 mg/kg oral, 1st Hour
  Collapsed %: 37.5* %
  Latency: 258 ± 71 s
  Collapsed n: 3.0
[2]; 4 mg/kg oral, 4th Hour
  Collapsed %: 0.0* %
  Latency: >360 s
  Collapsed n: 0.0
[2]; 4 mg/kg oral, 24th Hour
  Collapsed %: 50.0%
  Latency: 242 ± 64 s
  Collapsed n: 4.0
[2]; 8 mg/kg oral, 1st Hour
  Collapsed %: 25.0%
  Latency: 299 ± 57 s
  Collapsed n: 2.0
[2]; 8 mg/kg oral, 4th Hour
  Collapsed %: 0.0%
  Latency: >360 s
  Collapsed n: 0.0
[2]; 8 mg/kg oral, 24th Hour
  Collapsed %: 37.5%
  Latency: 256 ± 72 s
  Collapsed n: 3.0
[2]; Cavia porcellus, 4 h, oral, four hours before aerosol histamine, read-out: ED50 (protection against collapse)
  ED50: 0.91 mg/kg
[2]; oral
  Potency relative to racemic bambuterol: about twice
[2]; oral, listed as R enantiomer of bambuterol
  Potency relative to racemic bambuterol: about twice
[2]; oral, listed as R-Bambuterol
  Potency relative to racemic bambuterol: about twice
[2]; 0.25 mg/kg oral
  % collapse: 87.5%
  Latency time of collapse: 110 s
[2]; 0.5 mg/kg oral
  % collapse: 75%
  Latency time of collapse: 160 s
[2]; 1 mg/kg oral
  % collapse: 50%
  Latency time of collapse: 209 s
[2]; 2 mg/kg oral
  % collapse: 25%
  Latency time of collapse: 295 s
[2]; 4 mg/kg oral
  % collapse: 0%
  Latency time of collapse: >360 s
[2]; 8 mg/kg oral
  % collapse: 0%
  Latency time of collapse: >360 s
[2]; oral 2 to 8 mg/kg
  Onset of protective effects after administration: one
  Time of maximum protective effects after administration: 4 h
[2]; oral, collapse after aerosol histamine
  Dose at which full protective effect was seen: 4 mg/kg
[2]; oral, latency time to collapse
  Dose at which maximum effects on latency were seen: 4 mg/kg
[3]; 1 mg/kg oral
  % collapsed: 63%
  Latency time: 193 ± 30 s
[3]; 1 mg/kg oral (n = 8), four hours before aerosol ovalbumin
  Number collapsed: 5
[3]; 4 mg/kg oral
  % collapsed: 25%
  Latency time: 293 ± 27 s
[3]; 4 mg/kg oral (n = 8)
  Number collapsed: 2
[3]; 8 mg/kg oral
  % collapsed: 0%
  Latency time: >360*# sec
Hyperlipidemia mice; Tyl + 5 mg
  CHO lipid level: 189 ± 83 mg/dL
  HDL lipid level: 42 ± 27 mg/dL
  LDL lipid level: 34 ± 15 mg/dL
  VLDL lipid level: 50 ± 26 mg/dL
Hyperlipidemia mice; Tyl + 5 mg (5 mg/kg oral once a day for four days)
  TG lipid level: 323 ± 176 mg/dL
Hyperlipidemia mice; Tyl + 10 mg
  CHO lipid level: 119 ± 16 mg/dL
  HDL lipid level: 53.3 ± 6.7 mg/dL
  LDL lipid level: 29 ± 5 mg/dL
  VLDL lipid level: 35 ± 7 mg/dL
Hyperlipidemia mice; [4]
  TG lipid level: 105 ± 18 mg/dL
rats
  HR 20 min after Δ, % of Control: 3.7%
  Maxdp/dt 20 min after Δ, % of control: 5.0%

## CCC(C)(C)C(=O)O[C@H]1C[C@@H](C)C=C2C=C[C@H](C)[C@H](CC[C@@H]3C[C@@H](O)CC(=O)O3)[C@H]21 [simvastatin]
Hyperlipidemia mice; Tyl + 10 mg
  CHO lipid level: 176 ± 64 mg/dL
  HDL lipid level: 49 ± 16 mg/dL
  LDL lipid level: 42 ± 11 mg/dL
  VLDL lipid level: 85 ± 50 mg/dL
Hyperlipidemia mice; [4]
  TG lipid level: 311 ± 187 mg/dL
